From patent publication US5017489A (priority 1988, dated 1991)
“Also recorded” adds a separate entry of the source. Where two headings read alike, the source gives them in different places.

Key:
[1] = test system: G4 cells; test: Toxicity of inhibitor for G4 cells (51Cr release, trypan blue recovery); assay type: cell-based, murine; settings: PMSF at the concentrations shown (0.375-3 mM), 3% DMSO
[2] = test system: cytolytic activity of human CTLs; test: PMSF inhibition of cytolysis by human CTLs (2-h 51Cr-release assay); assay type: cell-based; settings: 15 min in 6 mM PMSF
Method: ^51 Cr-release killing assays were performed as described; when measuring lectin-dependent cytolytic activity, Con A (Vector Laboratories,Inc., Burlingame, CA) was added to a final concentration of 10 μg/ml.
Various numbers of T cells were incubated for 15 min at 37° C. in K medium containing PMSF at 0, 2, 4, and 6 mM (PMSF was added in DMSO; the final concentration of DMSO in all instances was 1%). Cytotoxicity was assayed as above except that a 2 hour assay was used to minimize the effect of new protein synthesis.

[3] = target: T1, CTL serine esterase (BLT-serine esterase) in extract of murine CTL clone G4 (Mus musculus, UniProt P11032)
T1 sequence (P11032 29-260): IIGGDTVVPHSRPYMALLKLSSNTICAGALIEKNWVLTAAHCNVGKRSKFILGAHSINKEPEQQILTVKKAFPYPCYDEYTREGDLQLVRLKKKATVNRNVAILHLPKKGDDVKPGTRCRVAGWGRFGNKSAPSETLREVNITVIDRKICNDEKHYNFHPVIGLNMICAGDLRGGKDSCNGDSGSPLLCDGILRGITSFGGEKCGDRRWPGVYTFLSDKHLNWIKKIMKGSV

[4] = test system: lysis of P815 (H-2d) cells by cloned anti-Dd G4 cells
[5] = test system: human CTLs and target cells; test: Viability of human CTLs (trypan blue exclusion) and targets (51Cr release) after PMSF; settings: 15 min in 6 mM PMSF
[6] = target: T1, CTL serine esterase (BLT-serine esterase) in extract of murine CTL clone G4; test: biochemical; settings: read-out: Percent Inhibition of esterase activity

O=S(=O)(F)Cc1ccccc1 [PMSF, phenylmethylsulfonyl fluoride]
added toxicity for G4 cells (51Cr release or reduced recovery of viable cells) [1]: no added toxicity
reduction of cytotoxicity [2]: approximately 75%
Percent Inhibition of esterase activity [3]: 97.2
inhibition of murine CTL serine esterase activity (in words) [3]: blocked completely; also recorded: inhibited; also recorded: completely inhibitable
inhibition of lysis of P815 cells by G4 cells (in words) ([4]; nontoxic concentrations, G4 preincubated 30 minutes at 37° C.): clearly inhibits lysis
viability of CTLs (trypan blue exclusion) and targets (release of 51Cr) [5]: not affecting the viability

Cc1ccc(S(=O)(=O)N[C@@H](CCCCN)C(=O)CCl)cc1 [TLCK, N-α-tosyl lysyl chloromethyl ketone]
inhibition of murine CTL serine esterase activity (in words) [3]: not and not, however, inhibited
inhibition of serine esterase (in words) [3]: not inhibited
inhibition at 500 µM [6]: 4.6%

Cc1ccc(S(=O)(=O)N[C@@H](Cc2ccccc2)C(=O)CCl)cc1 [TPCK, N-tosyl-L-phenylalanine chloromethyl ketone]
inhibition of murine CTL serine esterase activity (in words) ([3]; murine enzyme): not

aprotinin
inhibition in vitro of purified BLT serine esterase (in words) [3]: potent inhibitor
inhibition of serine esterase (in words) [3]: essentially totally inhibited
inhibition of CTL-mediated lysis (in words) [4]: does not inhibit
inhibition of cytotoxicity (in words) [4]: appears to inhibit cytotoxicity

α2 macroglobulin
inhibition of serine esterase (in words) [3]: not inhibited
